Data from patent US8106031B2, “Hydrolytically-resistant boron-containing therapeutics and methods of use” (Anacor Pharmaceuticals, Inc., priority 2006, dated 2012).
Values after ≈ are worked out from the molar mass of the structure shown. Where two headings read alike, the source gives them in different places.

Tests used:
Trichophyton rubrum = assay: MIC against T. rubrum (NCCLS broth dilution); assay type: cell-based; conditions: for Minimum inhibitory concentration, T. rubrum: Table 3, 1-hydroxy series (19); for MIC: Trichophyton rubrum, read-out: Minimum inhibitory concentration, T. rubrum
Source text: (§1) To determine the antifungal activity of these compounds we screened for their minimum inhibitory concentrations (MIC) against the major dermatophytes that cause onychomycosis, T. rubrum and T. mentagrophytes, and against the yeasts and molds C. albicans, C. neoformans and A. fumigatus to test for their broad spectrum activity. The antifungal agent ciclopirox, currently in use for the topical treatment of onychomycosis, was used as a reference.
(§2) All MIC testing against Trichophyton rubrum, Trichophyton mentagrophytes, Candida albicans, Cryptococcus neoformans and Aspergillus fumigatus were determined following the National Committee for Clinical Laboratory Standards (NCCLS) guidelines for antimicrobial testing of yeasts and filamentous fungi.^i,ii
(§3) Two-fold serial dilutions of the test compounds were prepared in 96-well plates. […] Pfaller M A, Chaturvedi V, Espinel-Ingroff A, Ghannoum M A, Gosey L L, Odds F C, Rex J H, Rinaldi M G, Sheehan D J, Walsh T J, Warnock D W. NCCLS publication M27-A2—Reference Method for Broth Dilution Antifungal Susceptibility Testing of Yeasts; Approved Standard—Second Edition. […] Pfaller M A, Chaturvedi V, Espinel-Ingroff A, Ghannoum M A, Gosey L L, Odds F C, Rex J H, Rinaldi M G, Sheehan D J, Walsh T J, Warnock D W. NCCLS publication M38-A—Reference Method for Broth Dilution Antifungal Susceptibility Testing of Filamentous Fungi; Approved Standard.

Aspergillus fumigatus = assay: MIC against A. fumigatus (NCCLS broth dilution); assay type: cell-based; conditions: for Minimum inhibitory concentration, A. fumigatus: Table 3, 1-hydroxy series (19); for MIC: Aspergillus fumigatus, read-out: Minimum inhibitory concentration, A. fumigatus
Source text: as §1, §2, §3

Cryptococcus neoformans = assay: MIC against C. neoformans (NCCLS broth dilution); assay type: cell-based; conditions: for Minimum inhibitory concentration, C. neoformans: Table 3, 1-hydroxy series (19); for MIC: Cryptococcus neoformans, read-out: Minimum inhibitory concentration, C. neoformans
Source text: as §1, §2, §3

Candida albicans = assay: MIC against C. albicans (NCCLS broth dilution); assay type: cell-based; conditions: for Minimum inhibitory concentration, C. albicans: Table 3, 1-hydroxy series (19); for MIC: Candida albicans, read-out: Minimum inhibitory concentration, C. albicans
Source text: as §1, §2, §3

[1] = test system: Trichophyton mentagrophytes; assay: MIC against T. mentagrophytes (NCCLS broth dilution); assay type: cell-based; conditions: for Minimum inhibitory concentration, T. mentagrophytes: Table 3, 1-hydroxy series (19); for MIC: Trichophyton mentagrophytes, read-out: Minimum inhibitory concentration, T. mentagrophytes
Source text: as §1, §2, §3

[2] = Table 1, over 90% reduction of growth, 24-168 h at 35° C.

| MIC (Trichophyton rubrum; Table 2, 1-phenyl series (9)) | MIC (Aspergillus fumigatus; Table 2, 1-phenyl series (9)) | MIC (Cryptococcus neoformans; Table 2, 1-phenyl series (9)) | MIC (Candida albicans; Table 2, 1-phenyl series (9)) | MIC ([1]; Table 2, 1-phenyl series (9)) | melting point | Molecule | other results |
| --- | --- | --- | --- | --- | --- | --- | --- |
| 8 µg/mL (≈ 37.7 µM) | 2 µg/mL (≈ 9.43 µM) | 2 µg/mL (≈ 9.43 µM) | 4 µg/mL (≈ 18.9 µM) | 4 µg/mL (≈ 18.9 µM) | 53 to 55 °C | Fc1ccc(B2OCc3ccccc32)cc1 [9e, 1,3-Dihydro-1-(4-fluorophenyl)-2,1-benzoxaborole] |  |
| 4 µg/mL (≈ 16.2 µM) | 2 µg/mL (≈ 8.11 µM) | 0.5 µg/mL (≈ 2.03 µM) | 0.25 µg/mL (≈ 1.01 µM) | 8 µg/mL (≈ 32.5 µM) | 112 to 114 °C | Fc1ccc2c(c1)COB2c1cccc(Cl)c1 [9f, 1-(3-Chlorophenyl)-1,3-dihydro-5-fluoro-2,1-benzoxaborole] |  |
| 1 µg/mL (≈ 4.35 µM) | 1 µg/mL (≈ 4.35 µM) | 1 µg/mL (≈ 4.35 µM) | 0.5 µg/mL (≈ 2.17 µM) | 2 µg/mL (≈ 8.69 µM) | 80 to 82 °C | Fc1cccc(B2OCc3cc(F)ccc32)c1 [9g, 1,3-Dihydro-5-fluoro-1-(3-fluorophenyl)-2,1-benzoxaborole] |  |
| 4 µg/mL (≈ 17.4 µM) | 2 µg/mL (≈ 8.69 µM) | 1 µg/mL (≈ 4.35 µM) | 1 µg/mL (≈ 4.35 µM) | 4 µg/mL (≈ 17.4 µM) | 75 to 77 °C | Fc1ccc(B2OCc3cc(F)ccc32)cc1 [9h, 1,3-Dihydro-5-fluoro-1-(4-fluorophenyl)-2,1-benzoxaborole] |  |
| 2 µg/mL (≈ 8.85 µM) | 0.5 µg/mL (≈ 2.21 µM) | 0.5 µg/mL (≈ 2.21 µM) | 1 µg/mL (≈ 4.42 µM) | 4 µg/mL (≈ 17.7 µM) | 48 to 49 °C | Cc1cccc(B2OCc3cc(F)ccc32)c1 [9i, 1,3-Dihydro-5-fluoro-1-(3-methylphenyl)-2,1-benzoxaborole] |  |
| 2 µg/mL (≈ 8.85 µM) | 0.5 µg/mL (≈ 2.21 µM) | 0.5 µg/mL (≈ 2.21 µM) | 0.5 µg/mL (≈ 2.21 µM) | 2 µg/mL (≈ 8.85 µM) | 48 to 49 °C | Cc1ccc(B2OCc3cc(F)ccc32)cc1 [9j, 1,3-Dihydro-5-fluoro-1-(4-methylphenyl)-2,1-benzoxaborole] |  |
|  |  |  |  |  | 57 to 59 °C | C(=Cc1ccccc1)B1OCc2ccccc21 [10a, 1,3-Dihydro-1-styryl-2,1-benzoxaborole] | MIC (Trichophyton rubrum; [2]): 8 µg/mL (≈ 36.4 µM); MIC (Aspergillus fumigatus; [2]): 4 µg/mL (≈ 18.2 µM); MIC (Cryptococcus neoformans; [2]): 4 µg/mL (≈ 18.2 µM); MIC (Candida albicans; [2]): 2 µg/mL (≈ 9.09 µM); MIC [1, 2]: 8 µg/mL (≈ 36.4 µM) |

Second part, the molecule before the results:

| Molecule | MIC (Trichophyton rubrum; Table 2, 1-phenyl series (9)) | MIC (Aspergillus fumigatus; Table 2, 1-phenyl series (9)) | MIC (Cryptococcus neoformans; Table 2, 1-phenyl series (9)) | MIC (Candida albicans; Table 2, 1-phenyl series (9)) | MIC ([1]; Table 2, 1-phenyl series (9)) | melting point | other results |
| --- | --- | --- | --- | --- | --- | --- | --- |
| 1,3-Dihydro-1-hydroxy-2,1-naphtho[2,1-d]oxaborole [19j] |  |  |  |  |  |  | Minimum inhibitory concentration, T. rubrum (Trichophyton rubrum): 4 µg/mL; Minimum inhibitory concentration, A. fumigatus (Aspergillus fumigatus): 32 µg/mL; Minimum inhibitory concentration, C. neoformans (Cryptococcus neoformans): 32 µg/mL; Minimum inhibitory concentration, C. albicans (Candida albicans): 32 µg/mL; Minimum inhibitory concentration, T. mentagrophytes [1]: 2 µg/mL |
| 1,3-Dihydro-1-hydroxy-5-trifluoromethoxy-benzoxaborole [19i] |  |  |  |  |  |  | Minimum inhibitory concentration, T. rubrum (Trichophyton rubrum): 64 µg/mL; Minimum inhibitory concentration, A. fumigatus (Aspergillus fumigatus): >64 µg/mL; Minimum inhibitory concentration, C. neoformans (Cryptococcus neoformans): >64 µg/mL; Minimum inhibitory concentration, C. albicans (Candida albicans): >64 µg/mL; Minimum inhibitory concentration, T. mentagrophytes [1]: 64 µg/mL |
| Clc1cccc(B2OCc3ccccc32)c1 [9c, 1-(3-Chlorophenyl)-1,3-dihydro-2,1-benzoxaborole] | 16 µg/mL (≈ 70 µM) | 8 µg/mL (≈ 35 µM) | 4 µg/mL (≈ 17.5 µM) | 8 µg/mL (≈ 35 µM) | 8 µg/mL (≈ 35 µM) |  |  |
| Fc1cccc(B2OCc3ccccc32)c1 [9d, 1,3-Dihydro-1-(3-fluorophenyl)-2,1-benzoxaborole] | 8 µg/mL (≈ 37.7 µM) | 8 µg/mL (≈ 37.7 µM) | 4 µg/mL (≈ 18.9 µM) | 4 µg/mL (≈ 18.9 µM) | 16 µg/mL (≈ 75.5 µM) |  |  |
| OB1OCc2ccccc21 [19a, 1,3-Dihydro-1-hydroxy-2,1-benzoxaborole] |  |  |  |  |  |  | MIC (Trichophyton rubrum): 8 µg/mL (≈ 59.7 µM); MIC (Aspergillus fumigatus): 2 µg/mL (≈ 14.9 µM); MIC (Cryptococcus neoformans): 1 µg/mL (≈ 7.47 µM); MIC (Candida albicans): 2 µg/mL (≈ 14.9 µM); MIC [1]: 4 µg/mL (≈ 29.9 µM) |
